Measured values taken from a melting point compilation (Tetko et al.; mined from patent text by program, amines drawn as free bases though some values may be those of a salt).

Point of comparison: `CCn1nc(C(C)(C)C)c2c1C(=S)NCC(c1ccccc1)=N2`, melting point 230 °C. Against it:
- CCOc1ccc2c(c1)C(=O)N(c1ccc3c(ccn3C)c1)C2 — lower, 185 to 190 °C
- O=C(Nc1ccc(Cl)c(C(F)(F)F)c1)Nc1ccc2ncsc2c1 — lower, 225 to 228 °C
- CCc1nc2cc(/C=C/C(=O)NO)ccc2c(=O)n1CCc1ccc(OC)cc1 — lower, 215 to 217 °C
- O=C(O)COc1ccc(C(=O)CN2CCN(c3ccncc3)CC2)cc1 — higher, 294 to 296 °C
- C[C@@H](O[C@H]1CCCN(Cc2n[nH]c(=O)[nH]2)[C@H]1c1ccccc1)c1cccc(Cl)c1 — lower, 164 to 165 °C
- COc1c(C2CCN(CCCCNC(=O)c3oc(-c4ccc(C#N)cc4)nc3C)CC2)ccc2c1CCCC2 — lower, 157 °C
- CC(C)(C)c1cc(C(=O)c2ccc(O)cc2)cc(C(C)(C)C)c1O — lower, 188 to 190 °C
- COc1c(Cl)cc(C(C)(C)N(CC(C)=O)C(=O)Cc2ccccc2)cc1Cl — lower, 126 to 127 °C
- CN1C(=O)c2[nH]c3cc(Cl)ccc3c2Oc2ccccc21 — higher, 306 to 307 °C
- O=c1[nH]c2ccccc2c(=O)cc1NCCO — lower, 207 °C
- CCCCCCCCC(CC(=O)Nc1ccccc1)CC(C)[N+](=O)[O-] (stereo unspecified) — lower, 71 to 72 °C
- Fc1cccc(F)c1C1=NC(c2ccccc2Br)CCS1 (stereo unspecified) — lower, 136 to 138 °C
- CP(C)(=O)CN1CCN(c2n[nH]c3ccccc23)CC1 — lower, 223 to 225 °C
- Cc1noc(NS(=O)(=O)c2nccs2)c1Br — lower, 175 to 177 °C
- CCCCCCCCNC(=N)NC#N — lower, 69 to 74 °C
- CS(=O)(=O)c1ccc(-c2cnn(-c3ccc(F)cc3)c(=O)c2COc2cccc(F)c2)cc1 — lower, 142 to 144 °C
- CCCC(CCC)Nc1nc(C)nc(Oc2c(Br)cc(C(C)(C)O)cc2OC)c1N — lower, 114 to 116 °C
- Cc1ccc(=O)n(C2c3cc(C#N)ccc3OC(C)(C)C2O)n1 (stereo unspecified) — higher, > 257 °C
- CCCCCc1cc(C(=O)OC)ccc1O — lower, 82.5 to 83.5 °C
- C=CCc1c(O)ccc2oc(C(=O)OCC)cc12 — lower, 94 to 95 °C
- COc1ccc2c(c1)C(=NNc1ccc(S(N)(=O)=O)cc1)C(=O)N2 — higher, > 250 °C
- COc1ccc(C2=NN(C3CCN(C(=O)c4ccccc4)CC3)C(=O)CC2)cc1OC — lower, 152 to 154 °C
- CC(C)(C)N(CCOCC#Cc1cncs1)C(=O)C(=O)O — lower, 104 to 105 °C
- CCOP(=O)(OCC)C1(P(=O)(OCC)OCC)CC(C(=O)c2ccccc2)=NN1 — lower, 134 °C
- COCC(=O)C1CCC2C3CCC4CC(=O)CCC4(C)C3CCC12C (stereo unspecified) — lower, 156 °C
- O=C1O[C@@H](Cn2ccnn2)CN1c1ccc(-c2ccc(C(O)C3CC3)nc2)c(F)c1 (stereo partly specified) — lower, 160 to 163 °C
- CN1CNC(=S)N(c2ccc(C(F)(F)F)cc2)C1 — lower, 163 to 165 °C
- COC(=O)NC(CCc1ccccc1)C(=O)OCC(Cl)(Cl)Cl (stereo unspecified) — lower, 31 to 35 °C
- COc1ccc([C@@H]2CCCC[C@@H]2N)cc1OC — lower, 80 to 81.5 °C
- CONC(=O)Cc1c(C)n(C(=O)c2ccc(Cl)cc2)c2ccc(OC)cc12 — lower, 184 to 185 °C
- Cc1ccc(Cl)c(C)c1NC(=O)N=C1NC(=O)CN1C — lower, 140 to 142 °C
- CCOCc1nc2cnc3cccnc3c2n1Cc1ccccc1 — lower, 118 to 119 °C
- Cc1c2c(c(C)n1-c1ccccc1)C(C)(C)OC2(C)C — lower, 113 to 116 °C
- COC(=O)C[C@@H]1C[C@@H](COc2ccc(-c3ccc(C#N)cc3)cc2)NC1=O — lower, 138 to 140 °C
- CC1(CC2CCCC2)Cc2cc(O)c(Cl)c(Cl)c2C1=O (stereo unspecified) — lower, 188 to 190 °C
- COc1cnc(CSc2nc3cc(OC(F)F)ccc3[nH]2)c(C)c1OC — lower, 100 to 102 °C
- C/C=C(\c1ccccc1)c1cc2cc(OC)ccc2[nH]1 — lower, 128 to 130 °C
- Nc1ccc(F)c(-c2ccccn2)c1F — lower, 71 to 73 °C
- CC[C@]12CC[C@H]3[C@@H](CC(=C(Br)Br)C4=CC(=O)CC[C@@H]43)[C@@H]1CCC2=O — lower, 149 to 153 °C
- CC1Oc2ccc(CN3CCC(c4ccc(C(F)(F)F)cc4)CC3)cc2NC1=O (stereo unspecified) — lower, 217 to 218 °C
